Experiments:
Format in all cases: in vivo
[1] = test system: giant foxtail (Setaria faberii); test: Test B postemergence; conditions: 13 to 15 days
How it was run: (§1)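 Post-treatment, species sat 13–15 days under greenhouse conditions before visual scoring against controls, 0 (no effect) through 100 (complete control). Application preemergence to sown seeds or postemergence at 1- to 4-leaf stage, using a non-phytotoxic solvent/surfactant formulation.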

corn (Zea mays) [2] = test: Test B postemergence; conditions: 13 to 15 days
How it was run: as §1

[3] = test system: cocklebur (Xanthium strumarium); test: Test B postemergence; conditions: 13 to 15 days
How it was run: as §1

[4] = test system: barnyardgrass (Echinochloa crus-galli); test: Test B postemergence; conditions: 13 to 15 days
How it was run: as §1

[5] = test system: pigweed (Amaranthus retroflexus); test: Test B postemergence; conditions: 13 to 15 days
How it was run: as §1

[6] = test system: velvetleaf (Abutilon theophrasti); test: Test B postemergence; conditions: 13 to 15 days
How it was run: as §1

wild oat (Avena fatua) = test: Test B postemergence; conditions: 13 to 15 days
How it was run: as §1

[7] = test system: blackgrass (Alopecurus myosuroides); test: Test B postemergence; conditions: 13 to 15 days
How it was run: as §1

[8] = test system: morning glory (Ipomoea hederacea); test: Test B postemergence; conditions: 13 to 15 days
How it was run: as §1

[9] = test system: crabgrass (Digitaria sanguinalis); test: Test B postemergence; conditions: 13 to 15 days
How it was run: as §1

[10] = test system: wheat (Triticum aestivum); test: Test B postemergence; conditions: 13 to 15 days
How it was run: as §1

[11] = test system: Surinam grass (Brachiaria decumbens); test: Test B postemergence; conditions: 13 to 15 days
How it was run: as §1

[12] = test system: lambsquarters (Chenopodium album); test: Test B postemergence; conditions: 13 to 15 days
How it was run: as §1

[13] = test system: smallflower flatsedge (Cyperus difformis); test: Test C flooded paddy test; conditions: for Flatsedge plant response rating: Flooded Paddy, scale 0 to 100, 0 no effect, 100 complete control; for Plant response rating, Flatsedge: flooded paddy test, scale 0 to 100 (0 no effect, 100 complete control)
How it was run: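 Flooded paddy, 2-leaf stage at treatment. Readout: visual % control vs untreated, 0–100, at 12–14 d in greenhouse.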

[14] = test system: giant foxtail (Setaria faberii); test: Test B preemergence; conditions: scale 0 to 100, 0 no effect, 100 complete control
How it was run: as §1

corn (Zea mays) [15] = test: Test B preemergence; conditions: scale 0 to 100, 0 no effect, 100 complete control
How it was run: as §1

[16] = test system: cocklebur (Xanthium strumarium); test: Test B preemergence; conditions: scale 0 to 100, 0 no effect, 100 complete control
How it was run: as §1

[17] = test system: barnyardgrass (Echinochloa crus-galli); test: Test B preemergence; conditions: scale 0 to 100, 0 no effect, 100 complete control
How it was run: as §1

[18] = test system: pigweed (Amaranthus retroflexus); test: Test B preemergence; conditions: scale 0 to 100, 0 no effect, 100 complete control
How it was run: as §1

[19] = test system: velvetleaf (Abutilon theophrasti); test: Test B preemergence; conditions: scale 0 to 100, 0 no effect, 100 complete control
How it was run: as §1

[20] = test system: morning glory (Ipomoea hederacea); test: Test B preemergence; conditions: scale 0 to 100, 0 no effect, 100 complete control
How it was run: as §1

[21] = test system: crabgrass (Digitaria sanguinalis); test: Test B preemergence; conditions: scale 0 to 100, 0 no effect, 100 complete control
How it was run: as §1

[22] = test system: Surinam grass (Brachiaria decumbens); test: Test B preemergence; conditions: scale 0 to 100, 0 no effect, 100 complete control
How it was run: as §1

[23] = test system: lambsquarters (Chenopodium album); test: Test B preemergence; conditions: scale 0 to 100, 0 no effect, 100 complete control
How it was run: as §1

rice (Oryza saliva) = test: Test B preemergence; conditions: scale 0 to 100, 0 no effect, 100 complete control
How it was run: as §1

[24] = Rate 125 g/ha, scale 0 (no effect) to 100 (complete control)
[25] = Rate 500 g/ha, scale 0 to 100, 0 is no effect, 100 is complete control

CC(C)(C)c1ccn(C2SCN(c3cccc(C(F)(F)F)c3)C2=O)n1 (stereo not shown) [Compound 1]
90: Plant response rating, Pigweed [5, 24] | Plant response rating, Lambsquarters [12, 24] | Plant response rating, Flatsedge ([13]; Rate 62 g/ha)
30: Plant response rating, Foxtail, Giant [1, 24] | Plant response rating, Wheat [10, 25] | Plant response rating, Velvetleaf ([19]; Preemergence, Rate 500 g/ha)
80: Plant response rating, Cocklebur [3, 25]
60: Plant response rating, Foxtail, Giant [1, 25] | Plant response rating, Corn (corn (Zea mays) [2]; [25]) | Plant response rating, Cocklebur [3, 24] | Plant response rating, Velvetleaf [6, 25]
0: Plant response rating, Corn (corn (Zea mays) [2]; [24]) | Plant response rating, Barnyardgrass [4, 24] | Plant response rating, Wild Oat (wild oat (Avena fatua); [24]) | Plant response rating, Wild Oat (wild oat (Avena fatua); [25]) | Plant response rating, Blackgrass [7, 24] | Plant response rating, Blackgrass [7, 25] | Plant response rating, Crabgrass [9, 24] | Plant response rating, Wheat [10, 24] | Plant response rating, Surinam grass [11, 24] | Plant response rating, Surinam grass [11, 25] | Plant response rating, Corn (corn (Zea mays) [15]; preemergence, Rate 125 g/ha) | Plant response rating, Cocklebur ([16]; preemergence, Rate 125 g/ha) | Plant response rating, Velvetleaf ([19]; preemergence, Rate 125 g/ha) | Plant response rating, Crabgrass ([21]; preemergence, Rate 125 g/ha) | Plant response rating, Surinam grass ([22]; Preemergence, Rate 500 g/ha) | Plant response rating, Surinam grass ([22]; preemergence, Rate 125 g/ha)
20: Plant response rating, Corn (corn (Zea mays) [15]; Preemergence, Rate 500 g/ha) | Plant response rating, Morningglory ([20]; preemergence, Rate 125 g/ha)
100: Plant response rating, Pigweed [5, 25] | Plant response rating, Morningglory [8, 25] | Plant response rating, Lambsquarters [12, 25] | Flatsedge plant response rating ([13]; Rate 250 g/ha) | Flatsedge plant response rating ([13]; Rate 500 g/ha) | Plant response rating, Flatsedge ([13]; Rate 125 g/ha) | Plant response rating, Foxtail, Giant ([14]; Preemergence, Rate 500 g/ha) | Plant response rating, Barnyardgrass ([17]; Preemergence, Rate 500 g/ha) | Plant response rating, Pigweed ([18]; Preemergence, Rate 500 g/ha) | Plant response rating, Pigweed ([18]; preemergence, Rate 125 g/ha) | Plant response rating, Crabgrass ([21]; Preemergence, Rate 500 g/ha) | Plant response rating, Lambsquarters ([23]; Preemergence, Rate 500 g/ha) | Plant response rating, Lambsquarters ([23]; preemergence, Rate 125 g/ha)
50: Plant response rating, Barnyardgrass [4, 25] | Plant response rating, Velvetleaf [6, 24] | Plant response rating, Morningglory [8, 24] | Plant response rating, Foxtail, Giant ([14]; preemergence, Rate 125 g/ha) | Plant response rating, Barnyardgrass ([17]; preemergence, Rate 125 g/ha)
40: Plant response rating, Crabgrass [9, 25] | Plant response rating, Cocklebur ([16]; Preemergence, Rate 500 g/ha) | Plant response rating, Morningglory ([20]; Preemergence, Rate 500 g/ha)

O=C1C(n2cccn2)CCN1c1cccc(C(F)(F)F)c1 (stereo not shown) [Compound 15]
60: Plant response rating, Lambsquarters ([23]; Preemergence, Rate 500 g/ha)
30: Plant response rating, Foxtail, Giant [1, 25] | Plant response rating, Blackgrass [7, 25] | Plant response rating, Morningglory ([20]; Preemergence, Rate 500 g/ha)
0: Plant response rating, Foxtail, Giant [1, 24] | Plant response rating, Corn (corn (Zea mays) [2]; [24]) | Plant response rating, Corn (corn (Zea mays) [2]; [25]) | Plant response rating, Cocklebur [3, 24] | Plant response rating, Cocklebur [3, 25] | Plant response rating, Barnyardgrass [4, 24] | Plant response rating, Barnyardgrass [4, 25] | Plant response rating, Velvetleaf [6, 24] | Plant response rating, Velvetleaf [6, 25] | Plant response rating, Wild Oat (wild oat (Avena fatua); [24]) | Plant response rating, Blackgrass [7, 24] | Plant response rating, Morningglory [8, 24] | Plant response rating, Morningglory [8, 25] | Plant response rating, Wheat [10, 24] | Plant response rating, Wheat [10, 25] | Plant response rating, Surinam grass [11, 24] | Plant response rating, Surinam grass [11, 25] | Plant response rating, Lambsquarters [12, 24] | Plant response rating, Lambsquarters [12, 25] | Plant response rating, Foxtail, Giant ([14]; Preemergence, Rate 500 g/ha) | Plant response rating, Foxtail, Giant ([14]; preemergence, Rate 125 g/ha) | Plant response rating, Rice (rice (Oryza saliva); Preemergence, Rate 500 g/ha) | Plant response rating, Rice (rice (Oryza saliva); preemergence, Rate 125 g/ha) | Plant response rating, Corn (corn (Zea mays) [15]; Preemergence, Rate 500 g/ha) | Plant response rating, Corn (corn (Zea mays) [15]; preemergence, Rate 125 g/ha) | Plant response rating, Cocklebur ([16]; Preemergence, Rate 500 g/ha) | Plant response rating, Cocklebur ([16]; preemergence, Rate 125 g/ha) | Plant response rating, Barnyardgrass ([17]; Preemergence, Rate 500 g/ha) | Plant response rating, Barnyardgrass ([17]; preemergence, Rate 125 g/ha) | Plant response rating, Pigweed ([18]; Preemergence, Rate 500 g/ha) | Plant response rating, Pigweed ([18]; preemergence, Rate 125 g/ha) | Plant response rating, Morningglory ([20]; preemergence, Rate 125 g/ha) | Plant response rating, Crabgrass ([21]; Preemergence, Rate 500 g/ha) | Plant response rating, Crabgrass ([21]; preemergence, Rate 125 g/ha) | Plant response rating, Surinam grass ([22]; preemergence, Rate 125 g/ha) | Plant response rating, Lambsquarters ([23]; preemergence, Rate 125 g/ha)
70: Plant response rating, Velvetleaf ([19]; Preemergence, Rate 500 g/ha)
20: Plant response rating, Crabgrass [9, 24] | Plant response rating, Surinam grass ([22]; Preemergence, Rate 500 g/ha)
50: Plant response rating, Wild Oat (wild oat (Avena fatua); [25]) | Plant response rating, Crabgrass [9, 25] | Plant response rating, Velvetleaf ([19]; preemergence, Rate 125 g/ha)

Cc1ccn(C2CCN(c3cccc(C(F)(F)F)c3)C2=O)n1 (stereo not shown) [Compound 16]
60: Plant response rating, Crabgrass [9, 25]
0: Plant response rating, Foxtail, Giant [1, 24] | Plant response rating, Corn (corn (Zea mays) [2]; [24]) | Plant response rating, Corn (corn (Zea mays) [2]; [25]) | Plant response rating, Cocklebur [3, 24] | Plant response rating, Cocklebur [3, 25] | Plant response rating, Barnyardgrass [4, 24] | Plant response rating, Barnyardgrass [4, 25] | Plant response rating, Velvetleaf [6, 24] | Plant response rating, Velvetleaf [6, 25] | Plant response rating, Wild Oat (wild oat (Avena fatua); [24]) | Plant response rating, Blackgrass [7, 24] | Plant response rating, Blackgrass [7, 25] | Plant response rating, Morningglory [8, 24] | Plant response rating, Morningglory [8, 25] | Plant response rating, Crabgrass [9, 24] | Plant response rating, Wheat [10, 24] | Plant response rating, Wheat [10, 25] | Plant response rating, Surinam grass [11, 24] | Plant response rating, Surinam grass [11, 25] | Plant response rating, Lambsquarters [12, 24] | Plant response rating, Lambsquarters [12, 25] | Plant response rating, Foxtail, Giant ([14]; Preemergence, Rate 500 g/ha) | Plant response rating, Foxtail, Giant ([14]; preemergence, Rate 125 g/ha) | Plant response rating, Rice (rice (Oryza saliva); Preemergence, Rate 500 g/ha) | Plant response rating, Rice (rice (Oryza saliva); preemergence, Rate 125 g/ha) | Plant response rating, Corn (corn (Zea mays) [15]; Preemergence, Rate 500 g/ha) | Plant response rating, Corn (corn (Zea mays) [15]; preemergence, Rate 125 g/ha) | Plant response rating, Cocklebur ([16]; Preemergence, Rate 500 g/ha) | Plant response rating, Cocklebur ([16]; preemergence, Rate 125 g/ha) | Plant response rating, Barnyardgrass ([17]; Preemergence, Rate 500 g/ha) | Plant response rating, Barnyardgrass ([17]; preemergence, Rate 125 g/ha) | Plant response rating, Pigweed ([18]; Preemergence, Rate 500 g/ha) | Plant response rating, Pigweed ([18]; preemergence, Rate 125 g/ha) | Plant response rating, Velvetleaf ([19]; preemergence, Rate 125 g/ha) | Plant response rating, Morningglory ([20]; Preemergence, Rate 500 g/ha) | Plant response rating, Morningglory ([20]; preemergence, Rate 125 g/ha) | Plant response rating, Crabgrass ([21]; Preemergence, Rate 500 g/ha) | Plant response rating, Crabgrass ([21]; preemergence, Rate 125 g/ha) | Plant response rating, Surinam grass ([22]; Preemergence, Rate 500 g/ha) | Plant response rating, Surinam grass ([22]; preemergence, Rate 125 g/ha) | Plant response rating, Lambsquarters ([23]; Preemergence, Rate 500 g/ha) | Plant response rating, Lambsquarters ([23]; preemergence, Rate 125 g/ha)
50: Plant response rating, Wild Oat (wild oat (Avena fatua); [25])
30: Plant response rating, Foxtail, Giant [1, 25]
20: Plant response rating, Velvetleaf ([19]; Preemergence, Rate 500 g/ha)
